# Test results as given in patent US7763426B2, “Probes and methods for detection of Escheridia coli and antibiotic resistance” (priority 2004, dated 2010).
# {Fluorescein} = fluorescein label (binding site for anti-fluorescein Fab-HRP); {Biotin} = biotin (capture probe anchor)
# Tested on: bacterial 16S rRNA
# Assay: Amperometric detection of bacterial 16S rRNA, statements over several targets (Examples 2, 3)
# Assay type: binding
# Conditions: previous studies; no gap between hybridization sites
# Experimental: Sensor characterization and surface functional layer preparation. Microfabricated electrochemical sensor arrays with an alkanethiolate self-assembled monolayer (SAM) were obtained from GeneFluidics (Monterey Park, Calif.). SAM integrity was confirmed by cyclic voltammetry (CV) (1) using a 16-channel potentiostat (GeneFluidics). After CV characterization, sensor arrays were washed and dried. Washing steps were carried out by applying a stream of deionized H2O to the sensor surface for approximately 2-3 sec followed by 5 sec of drying under a stream of nitrogen. To functionalize the sensor surface, 2.5 μl of 0.5 U/ml streptavidin (Calbiochem, San Diego, Calif.) in 100 mM phosphate buffered saline, pH 7.4 was added to the alkanethiol activated sensors, incubated for 10 min at room temperature and washed off. Biotinylated capture probes (2.5 μl, 1 μM in GeneFluidics' Probe Diluent) were added to the streptavidin-coated sensors. […]
# Amperometric Detection of bacterial 16S rRNA. […] Amperometric current vs. time was measured using a multichannel potentiostat (GeneFluidics). The voltage was fixed at −200 mV (vs. reference), and the electroreduction current was measured at 60 sec after the HRP redox reaction reached steady state. All samples were analyzed in duplicate. […] Positive signals are determined by comparing the signals with the background using paired T test. […]
substance,measurement,value
"UNI: Universal Bacterial probe pair: capture 797 (27 mer) SEQ ID NO: 13, detector 766 (31 mer) SEQ ID NO: 14 (DNA 1 CATCGTTTACGGCGTGGACTACCAGGG; DNA 2 TATCTAATCCTGTTTGCTCCCCACGCTTTCG; DNA 1: DNA, 5' {Biotin}, backbone and methylation of C not given here; DNA 2: DNA, 5' {Fluorescein}, backbone and methylation of C not given here)",higher signals than the species-specific probes with 6 bp gap,1.5-4 fold
